Measurements taken from patent publication US7388017B2, “Inhibitors of serine proteases, particularly hepatitis C virus NS3 protease” (Vertex Pharmaceuticals Incorporated, priority 1996, dated 2008).
Read-outs that look alike come from different tables or passages of the source. Starred links: 1 amine or outer side, 2 acyl side, 3 side chain; linkers in the order of their positions; H or OH if unused. Non-standard residues stand in square brackets, D forms with d. Residues, ends and D or L forms follow the SMILES beside them. Groups on a side chain read outwards from the residue. *: point of attachment. NH(1,3-benzodioxol-5-yl) = c1cc2c(cc1N*)OCO2; X19 = O=[N+]([O-])c1cc(N*)ccc1N1CCCCC1; Pyrazinecarbonyl = O=C(c1cnccn1)*; X30 = O=[N+]([O-])c1cccc(N*)c1; pNA = O=[N+]([O-])c1ccc(N*)cc1; X28 = c1ccc(Oc2cccc(N*)c2)cc1; Hyp = O=C(O)[CH]1C[CH](O)CN1; NH(3-MeOPh) = COc1cccc(N*)c1; X3 = c1ccc(-c2ccccc2N*)cc1; 3Abz = Nc1cccc(C(=O)O)c1; X18 = CC(=O)c1cccc(N*)c1; X39 = CC(=O)c1ccc(N*)cc1; X43 = Clc1cc(N*)cc(Cl)n1; X17 = c1nc2ccc(N*)cc2s1; X9 = COc1ccc(OC)c(N*)c1; 2Abz = Nc1ccccc1C(=O)O; X14 = Clc1ccc(N*)cc1Cl; X46 = Clc1cccc(Cl)c1N*; Abu = CC[CH](N)C(=O)O; X34 = N#Cc1cccc(N*)c1; X38 = CC(C)c1ccccc1N*; CO = O=C([*:1])[*:2]; NHBn = c1ccc(CN*)cc1; X47 = COc1ccccc1N*

Molecular target: T1, HCV NS3 protease (Hepatitis C virus genotype 1a, UniProt P27958)
T1 construct: more particularly HCV NS3 proteases
Assay: Enzyme inhibition of HCV NS3 serine protease (cleavage of peptide substrate / EDVV AbuC-p-nitroanilide, with or without NS4A)
Format: biochemical
Method: Cleavage reactions were quenched by the addition of an equal volume of a mixture of 10% TFA:acetonitrile (1:1) and activity was assessed on a reversed phase HPLC column (Rainin C18 Microsorb-MV, […], 4.6×250 mm; 0-50% acetonitrile, 0.1% TFA@ 3.33% min) using a Hewlett Packard 1050 instrument with auto-injection and diode array detection at 210 nm and 280 nm (where appropriate). Peptide elution fragments were collected and identified by mass spectrometry and N-terminal sequence analysis. Fragment identity and concentration was further verified by authentic, synthesized products. Initial rates of cleavage were determined at <20% substrate conversion and catalytic parameters were determined assuming Michaelis-Menten kinetics using the MultiFit program (Day Computing, Cambridge, Mass.).
Spectrophotometric assays were run in a 96-well microtiter plate at 30 C, using a SpectraMax 250 reader (Molecular Devices, Sunnyvale, Calif.) with kinetic capability. Cleavage of EDVV AbuC-p-nitroanilide (5A-pNA) substrate was performed with or without […] in the same buffer used for HPLC assays at 30 C, and pNA release was monitored at 405 nm. The extinction-coefficient of p-nitroaniline is independent of pH at values of 5.5. and above [Tuppy, H., et al., Hoppe-Seyler's Z. Physiol. Chem., 329, pp. 278-288 (1962)]; Raybuck and Luong, unpublished observations).
Kinetic constants for the rapid equilibrium ordered bisubstrate reaction were determined from rate vs [4A], [EDVV AbuC-pNA] data by non-linear least squares fitting to equation 1 [Morrison, J. F. Biochim. Biophys. Acta, 185, pp. 269-286 (1969)] as described in the text. Kii and Kis values for peptidyl inhibitors were determined from rate vs [inhibitor], [substrate] data and fitting to the equation for mixed inhibition: rate=Vmax[S]/{Km(1+[I]/Kis)+[S](1+[I]/Kii)} The commercial program KinetAsyst (StateCollege, Pa.) was used for both procedures. Ki values were calculated from rate vs [inhibitor] plots by a nonlinear least squares fit of the data to the equation of Morrison for tight binding competitive inhibition [Morrison, J. F. Biochim. Biophys. Acta, 185, pp. 269-286 (1969)]. The KineTic program (BioKin Ltd) was used for this procedure.
Ki values are expressed in μM. Category “A” indicates <1 μM inhibition; category “B” indicates 1-100 μM inhibition; category “C” indicates >100 μM.

[1] = Enzyme inhibition data, Ki from rate vs [inhibitor] plots, Morrison tight binding competitive inhibition fit, 30 C, pH 7.8, read-out: Ki

T1 sequence (P27958 1027-1208): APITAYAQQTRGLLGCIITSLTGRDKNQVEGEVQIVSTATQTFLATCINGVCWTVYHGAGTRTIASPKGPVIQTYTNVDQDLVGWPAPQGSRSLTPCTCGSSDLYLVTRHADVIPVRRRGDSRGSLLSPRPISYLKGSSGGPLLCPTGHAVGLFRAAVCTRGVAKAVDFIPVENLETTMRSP

SMILES	Ki [1]	Ki
CCC(C=O)NC(=O)C1CC(OC(=O)Nc2ccc(N3CCCCC3)c([N+](=O)[O-])c2)CN1C(=O)C(NC(=O)C(NC(=O)c1cnccn1)C(C)C)C(C)C (stereo not shown) [Compound 34] (Pyrazinecarbonyl-VV[Hyp]([CO-X19])[Abu]-aldehyde; configuration not given here)	1 to 100 µM	
CCC(C=O)NC(=O)C1CC(OC(=O)Nc2ccc3ncsc3c2)CN1C(=O)C(NC(=O)C(NC(=O)c1cnccn1)C(C)C)C(C)C (stereo not shown) [Compound 35] (Pyrazinecarbonyl-VV[Hyp]([CO-X17])[Abu]-aldehyde; configuration not given here)	1 to 100 µM	
CCC(C=O)NC(=O)C1CC(OC(=O)Nc2cccc(C(C)=O)c2)CN1C(=O)C(NC(=O)C(NC(=O)c1cnccn1)C(C)C)C(C)C (stereo not shown) [Compound 36] (Pyrazinecarbonyl-VV[Hyp]([CO-X18])[Abu]-aldehyde; configuration not given here)	> 100 µM	
CCC(C=O)NC(=O)C1CC(OC(=O)Nc2ccc(C(C)=O)cc2)CN1C(=O)C(NC(=O)C(NC(=O)c1cnccn1)C(C)C)C(C)C (stereo not shown) [Compound 37] (Pyrazinecarbonyl-VV[Hyp]([CO-X39])[Abu]-aldehyde; configuration not given here)	1 to 100 µM	
CCC(C=O)NC(=O)C1CC(OC(=O)Nc2cccc(C#N)c2)CN1C(=O)C(NC(=O)C(NC(=O)c1cnccn1)C(C)C)C(C)C (stereo not shown) [Compound 38] (Pyrazinecarbonyl-VV[Hyp]([CO-X34])[Abu]-aldehyde; configuration not given here)	1 to 100 µM	
CCC(C=O)NC(=O)C1CC(OC(=O)Nc2ccc([N+](=O)[O-])cc2)CN1C(=O)C(NC(=O)C(NC(=O)c1cnccn1)C(C)C)C(C)C (stereo not shown) [Compound 39] (Pyrazinecarbonyl-VV[Hyp]([CO-pNA])[Abu]-aldehyde; configuration not given here)	1 to 100 µM	
CCC(C=O)NC(=O)C1CC(OC(=O)Nc2cccc([N+](=O)[O-])c2)CN1C(=O)C(NC(=O)C(NC(=O)c1cnccn1)C(C)C)C(C)C (stereo not shown) [Compound 40] (Pyrazinecarbonyl-VV[Hyp]([CO-X30])[Abu]-aldehyde; configuration not given here)	1 to 100 µM	
CCC(C=O)NC(=O)C1CC(OC(=O)Nc2cc(OC)ccc2OC)CN1C(=O)C(NC(=O)C(NC(=O)c1cnccn1)C(C)C)C(C)C (stereo not shown) [Compound 41] (Pyrazinecarbonyl-VV[Hyp]([CO-X9])[Abu]-aldehyde; configuration not given here)	1 to 100 µM	
CCC(C=O)NC(=O)C1CC(OC(=O)Nc2cccc(OC)c2)CN1C(=O)C(NC(=O)C(NC(=O)c1cnccn1)C(C)C)C(C)C (stereo not shown) [Compound 42] (Pyrazinecarbonyl-VV[Hyp]([CO-NH(3-MeOPh)])[Abu]-aldehyde; configuration not given here)	1 to 100 µM	
CCC(C=O)NC(=O)C1CC(OC(=O)Nc2ccccc2OC)CN1C(=O)C(NC(=O)C(NC(=O)c1cnccn1)C(C)C)C(C)C (stereo not shown) [Compound 43] (Pyrazinecarbonyl-VV[Hyp]([CO-X47])[Abu]-aldehyde; configuration not given here)	1 to 100 µM	
CCC(C=O)NC(=O)C1CC(OC(=O)Nc2ccc3c(c2)OCO3)CN1C(=O)C(NC(=O)C(NC(=O)c1cnccn1)C(C)C)C(C)C (stereo not shown) [Compound 44] (Pyrazinecarbonyl-VV[Hyp]([CO-NH(1,3-benzodioxol-5-yl)])[Abu]-aldehyde; configuration not given here)	1 to 100 µM	
CCC(C=O)NC(=O)C1CC(OC(=O)Nc2c(Cl)cccc2Cl)CN1C(=O)C(NC(=O)C(NC(=O)c1cnccn1)C(C)C)C(C)C (stereo not shown) [Compound 45] (Pyrazinecarbonyl-VV[Hyp]([CO-X46])[Abu]-aldehyde; configuration not given here)	1 to 100 µM	
CCC(C=O)NC(=O)C1CC(OC(=O)Nc2ccc(Cl)c(Cl)c2)CN1C(=O)C(NC(=O)C(NC(=O)c1cnccn1)C(C)C)C(C)C (stereo not shown) [Compound 46] (Pyrazinecarbonyl-VV[Hyp]([CO-X14])[Abu]-aldehyde; configuration not given here)	1 to 100 µM	
CCC(C=O)NC(=O)C1CC(OC(=O)NCc2ccccc2)CN1C(=O)C(NC(=O)C(NC(=O)c1cnccn1)C(C)C)C(C)C (stereo not shown) [Compound 50] (Pyrazinecarbonyl-VV[Hyp]([CO-NHBn])[Abu]-aldehyde; configuration not given here)	1 to 100 µM	
CCC(C=O)NC(=O)C1CC(OC(=O)Nc2cc(Cl)nc(Cl)c2)CN1C(=O)C(NC(=O)C(NC(=O)c1cnccn1)C(C)C)C(C)C (stereo not shown) [Compound 51] (Pyrazinecarbonyl-VV[Hyp]([CO-X43])[Abu]-aldehyde; configuration not given here)	1 to 100 µM	
CCC(C=O)NC(=O)C1CC(OC(=O)Nc2ccccc2-c2ccccc2)CN1C(=O)C(NC(=O)C(NC(=O)c1cnccn1)C(C)C)C(C)C (stereo not shown) [Compound 52] (Pyrazinecarbonyl-VV[Hyp]([CO-X3])[Abu]-aldehyde; configuration not given here)	1 to 100 µM	
CCC(C=O)NC(=O)C1CC(OC(=O)Nc2cccc(Oc3ccccc3)c2)CN1C(=O)C(NC(=O)C(NC(=O)c1cnccn1)C(C)C)C(C)C (stereo not shown) [Compound 53] (Pyrazinecarbonyl-VV[Hyp]([CO-X28])[Abu]-aldehyde; configuration not given here)	1 to 100 µM	

SMILES	Ki [1]	Ki
CCC(C=O)NC(=O)C1CC(OC(=O)Nc2ccccc2C(C)C)CN1C(=O)C(NC(=O)C(NC(=O)c1cnccn1)C(C)C)C(C)C (stereo not shown) [Compound 54] (Pyrazinecarbonyl-VV[Hyp]([CO-X38])[Abu]-aldehyde; configuration not given here)	1 to 100 µM	
CCC(C=O)NC(=O)C1CC(OC(=O)Nc2ccccc2C(=O)OC)CN1C(=O)C(NC(=O)C(NC(=O)c1cnccn1)C(C)C)C(C)C (stereo not shown) [Compound 55] (Pyrazinecarbonyl-VV[Hyp]([CO-2Abz-OMe])[Abu]-aldehyde; configuration not given here)	1 to 100 µM	
CCOC(=O)c1cccc(NC(=O)OC2CC(C(=O)NC(C=O)CC)N(C(=O)C(NC(=O)C(NC(=O)c3cnccn3)C(C)C)C(C)C)C2)c1 (stereo not shown) [Compound 56] (Pyrazinecarbonyl-VV[Hyp]([CO-3Abz-OEt])[Abu]-aldehyde; configuration not given here)	> 100 µM	
CCC(C=O)NC(=O)C1CC(NC(=O)c2ccc(Cl)c(Cl)c2)CN1C(=O)C(NC(=O)C(NC(=O)c1cnccn1)C(C)C)C(C)C (stereo not shown) [Compound 57]	1 to 100 µM	
CCC(C=O)NC(=O)C1CC(NC(=O)NCc2ccccc2)CN1C(=O)C(NC(=O)C(NC(=O)c1cnccn1)C(C)C)C(C)C (stereo not shown) [Compound 58]	1 to 100 µM	
CCC(C=O)NC(=O)C1CC(NC(=O)N2CCOCC2)CN1C(=O)C(NC(=O)C(NC(=O)c1cnccn1)C(C)C)C(C)C (stereo not shown) [Compound 59]	1 to 100 µM	
CCC(C=O)NC(=O)C1CC(NC(=O)OCc2ccccc2)CN1C(=O)C(NC(=O)C(NC(=O)c1cnccn1)C(C)C)C(C)C (stereo not shown) [Compound 60]	> 100 µM	
C=CCOC(=O)NC1CC(C(=O)NC(C=O)CC)N(C(=O)C(NC(=O)C(NC(=O)c2cnccn2)C(C)C)C(C)C)C1 (stereo not shown) [Compound 61]	> 100 µM	
CCC(C=O)NC(=O)C1CC(NC(=O)c2ccccc2)CN1C(=O)C(NC(=O)C(NC(=O)c1cnccn1)C(C)C)C(C)C (stereo not shown) [Compound 62]	1 to 100 µM	
CCC(C=O)NC(=O)C1CC(NC(=O)CCc2ccccc2)CN1C(=O)C(NC(=O)C(NC(=O)c1cnccn1)C(C)C)C(C)C (stereo not shown) [Compound 63]	1 to 100 µM	
CCC(C=O)NC(=O)C1CC(NC(=O)C(=O)c2ccccc2)CN1C(=O)C(NC(=O)C(NC(=O)c1cnccn1)C(C)C)C(C)C (stereo not shown) [Compound 64]	1 to 100 µM	
CCC(C=O)NC(=O)C1CC(NS(=O)(=O)Cc2ccccc2)CN1C(=O)C(NC(=O)C(NC(=O)c1cnccn1)C(C)C)C(C)C (stereo not shown) [Compound 65]	1 to 100 µM	
CCC(C=O)NC(=O)C1CC(NCc2ccccc2)CN1C(=O)C(NC(=O)C(NC(=O)c1cnccn1)C(C)C)C(C)C (stereo not shown) [Compound 67]	> 100 µM	
CCC(NC(=O)C1CC(OCc2ccc(Cl)c(Cl)c2)CN1C(=O)C(NC(=O)C(NC(=O)c1cnccn1)C(C)C)C(C)C)P(=O)(Oc1ccccc1)Oc1ccccc1 (stereo not shown) [Compound 71]		< 1 µM
CCC(NC(=O)C1CC(OCc2ccc3ccccc3c2)CN1C(=O)C(NC(=O)C(NC(=O)c1cnccn1)C(C)C)C(C)C)P(=O)(Oc1ccccc1)Oc1ccccc1 (stereo not shown) [Compound 72]		1 to 100 µM
CCC(NC(=O)C1CC(OCc2ccccc2)CN1C(=O)C(NC(=O)C(NC(=O)c1cnccn1)C(C)C)C(C)C)P(=O)(Oc1ccccc1)Oc1ccccc1 (stereo not shown) [Compound 73]		1 to 100 µM
CCC(NC(=O)C1CC(OCc2ccccc2)CN1C(=O)C(NC(=O)C(NC(=O)c1cnccn1)C(C)C)C(C)C)C(=O)C(F)(F)C(F)(F)F (stereo not shown) [Compound 75]	1 to 100 µM	
